These results are taken from ChEMBL document CHEMBL4265917, “Antibacterial and antioxidant activities for natural and synthetic dual-active compounds” (Eur J Med Chem, 2018).

Common to all, as to type: functional
Experiment [1] in a line: Antioxidant activity assessed as DPPH free radical scavenging activity.
For another experiment, the system named is Staphylococcus aureus. Kind of experiment: Antibacterial activity against Staphylococcus aureus.
A further experiment deals with Escherichia coli. As to the kind of experiment: Antibacterial activity against Escherichia coli.

Molecules are shown by their SMILES. Converted amounts (≈) assume the structure as drawn.

On to `COc1cccc2c1OCC(c1nnn(Cc3cn(Cc4ccccc4)nn3)n1)=C2`, for which the half-maximal inhibitory concentration (IC50) in experiment [1] came to 78.74 mg/L (≈ 196 µM). For the same compound, the MIC in the experiment with Staphylococcus aureus turned out to be 10.5 mg/L (≈ 26.2 µM); in the experiment with Escherichia coli it was 9.5 mg/L (≈ 23.7 µM).
